US20230295163A1, “TETRACYCLIC DERIVATIVE, METHOD FOR PREPARING SAME AND USE THEREOF IN MEDICINE” (ZHEJIANG HISUN PHARMACEUTICAL CO., LTD., priority 2020, published 2023)
pIC50: −log10 of the molar value. Where two headings read alike, the source gives them in different places.

What was measured:
[1] = ICR mouse pharmacokinetic research; format: in vivo; details: plasma, po, ICR mice, intragastric administration 5 mg/kg
Protocol: ICR mice were used as test animals. The drug concentrations in plasma at different time points of the compounds in Comparative Example 1 and Example 17 of the present disclosure intragastrically administered to the mice were determined by LC/MS/MS method, to study the pharmacokinetic characteristics of the compounds of the present disclosure in mice.
Preparation for intragastric administration: An appropriate amount of the compound to be tested was weighed, added with an appropriate amount of DMSO: PEG 200=5%: 95% (v/v), shaken by vortex, and prepared into a solution with a final concentration of 0.5 mg/mL.
Intragastric administration group: After fasting overnight, the mice were intragastrically administered at a dose of 5 mg/kg and a volume of 10 mL/kg, and fed 4 h after the administration.
Intragastric administration group: About 100 μL of blood was collected through the orbital vein before administration and at 0.25 h, 0.5 h, 1 h, 2 h, 4 h, 8 h, 12 h and 24 h after administration.
The whole blood sample was put in an EDTA-K2 anticoagulant tube. The plasma was separated by centrifugation at 1500 g for 10 min. The collected upper layer plasma was stored at −40 to −20° C. before analysis.
The content of the compound to be tested in mouse plasma was determined by LC-MS/MS after the compound was intragastrically administered.

NCI-H358 cells = assay: Inhibition of NCI-H358 cell proliferation (CellTiter-Glo); format: cell-based, human; details: 120 h of culture, read-out: IC50 inhibiting NCI-H358 cell proliferation
Protocol: The following method was used to determine the effect of the compounds of the present disclosure on the proliferation of NCI-H358 cells. NCI-H358 cells (containing KRAS G12C mutation) were purchased from the Cell Resource Center, Shanghai Institutes for Biology Sciences, Chinese Academy of Sciences, and cultured in RPMI 1640 medium containing 10% fetal bovine serum, 100 U penicillin, 100 μg/mL streptomycin and 1 mM sodium pyruvate. Cell viability was determined by CellTiter-Glo® Luminescent Cell Viability Assay Kit (Promega, Cat. No. G7573).
The experiment was conducted according to the steps in the kit instruction, which is briefly described as follows: The test compound was first prepared with DMSO into a 10 mM stock solution, which was then diluted with medium into a test sample with a final concentration of the compound ranging from 1000 nM to 0.015 nM Cells in the logarithmic growth phase were inoculated into a 96-well cell culture plate at a density of 800 cells per well, cultured overnight at 37° C. in a 5% CO2 incubator, and then added with the test compound for 120 h of culture. After the culture was completed, 50 μL of CellTiter-Glo detection solution was added to each well, shaken for 5 min and left to stand for 10 min. Subsequently, the luminescence value of the sample in each well was read by a microplate in a luminescence mode. The percentage of inhibition rate of the compounds at each concentration was calculated by comparing with the value of the control group (0.3% DMSO). Then a nonlinear regression analysis on the log concentration-inhibition rate of the compounds was performed by the software GraphPad Prism 5 to obtain the IC50 value of the compound inhibiting NCI-H358 cell proliferation. Table 2 IC50 data of compounds of the present disclosure inhibiting NCI-H358 cell proliferation Compound number IC50(nM)

[2] = molecular target: T1, recombinant human KRAS G12C protein (Homo sapiens, UniProt P01116, G12C); assay: Covalent binding ability to KRAS G12C protein (LC-MS); details: 3 μM, 5 min
T1 construct: The recombinant human KRAS G12C protein (aa1-169)
Protocol: The following method was used to determine the covalent binding ability of the compounds of the present disclosure to recombinant human KRAS G12C protein under in vitro conditions.
The experimental procedure is briefly described as follows: The recombinant human KRAS G12C protein (aa1-169) was prepared with a reaction buffer (20 mM HEPES, 150 mM NaCl, 1 mM MgCl2, 1 mM DTT) at a concentration of 4 μM for later use. The test compound was prepared with DMSO into a 10 mM stock solution, which was then diluted with the reaction buffer for later use. First, 1.5 μL of the test compound diluted with the reaction buffer was added to each well (a final concentration of the reaction system was […]), then added with 23.5 μL of the reaction buffer, mixed well, then added with 25 μL of 4 μM recombinant human KRAS G12C protein for 5 min of incubation at room temperature, and added with 5 μL of acetic acid to stop the reaction. The samples were transferred to injection vials. The ratios of covalent binding between the test compounds and KRAS G12C protein were detected by Agilent 1290/6530 instrument, and the samples were analyzed in a liquid chromatography column (XBridge Protein BEH C4, 300 Å, 3.5 μm, 2.1 mm×50 mm). In the detection process, mobile phase A was 0.1% formic acid aqueous solution, mobile phase B was acetonitrile, the mobile phase elution program was as follows: mobile phase A was kept at 95% at 0-0.5 min, changed to 30% at 2.5 min for 0.5 min, and changed to 95% at 3.1 min for 1.9 min; and flow rate was 0.5 mL/min. Finally, the data was analyzed by MassHunter Workstation Software Bioconfirm Version B.08.00 to obtain the covalent binding rate between the test compound at a concentration of 3 μM and KRAS G12C protein under 5 min of incubation.

[3] = system: p-ERK1/2 in NCI-H358 cells; assay: Inhibition of p-ERK1/2 in NCI-H358 cells (HTRF kit); format: cell-based; details: Homo sapiens, hEGF 5 nM stimulation, read-out: IC50 inhibiting p-ERK1/2 in NCI-H358 cells
Description: The following method was used to determine the inhibitory activity of the compounds of the present disclosure on p-ERK1/2 in NCI-H358 cells. In this method, Advanced phospho-ERK1/2 (Thr202/tyr204) kit (Cat. No. 64AERPEH) from Cisbio company was used, and the detailed experimental operation can be referred to the kit instruction. NCI-H358 cells (containing KRAS G12C mutation) were purchased from the Cell Resource Center, Shanghai Institutes for Biology Sciences, Chinese Academy of Sciences.
The experimental procedure is briefly described as follows: NCI-H358 cells were cultured in RPMIH 1640 complete medium containing 10% fetal bovine serum, 100 U penicillin, 100 μg/mL streptomycin and 1 mM sodium pyruvate. […] The 96-well plate was placed on ice for half an hour of lysis, and then the lysate was detected according to the instruction of the Advanced phospho-ERK1/2 (Thr202/tyr204) kit. Finally, the fluorescence intensity of each well at emission wavelengths of 620 nm and 665 nM was measured on a microplate reader in TF-FRET mode at an excitation wavelength of 304 nm, and the ratio of the fluorescence intensity of each well at 665/620 was calculated. The percentage of inhibition rate of the test compounds at each concentration was calculated by comparing with the fluorescence intensity of the control group (0.1% DMSO). […]

T1 sequence (P01116 1-169 isoform P01116-2 G12C): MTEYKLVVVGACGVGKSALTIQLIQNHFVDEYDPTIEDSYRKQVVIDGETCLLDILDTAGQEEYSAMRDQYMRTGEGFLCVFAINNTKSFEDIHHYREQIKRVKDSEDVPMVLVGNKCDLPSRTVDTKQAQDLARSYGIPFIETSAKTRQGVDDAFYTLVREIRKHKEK

| SMILES | pIC50 (NCI-H358 cells; Homo sapiens, NCI-H358, 120 h) | Covalent binding rate (%) [2] | pIC50 (NCI-H358 cells) | also measured |
| --- | --- | --- | --- | --- |
| C=CC(=O)N1C[C@@H]2C(=O)N(C)c3c(c4cc(Cl)c(-c5c(O)cccc5F)nc4n(-c4c(C)ccnc4C(C)C)c3=O)N2C[C@H]1C (atropisomer, axis not shown) [Comparative Example 1, reference compound] |  |  |  | AUC(0-inf) ([1]; read-out: Area under curve AUC0-∞): 4180 ng·h/mL; Cmax ([1]; read-out: Blood concentration Cmax): 928 ng/mL; half-life ([1]; read-out: Half-life T½ (converted)): 117 min |
| C=CC(=O)N1C[C@@H]2C(=O)N(C)c3c(c4cc(F)c(-c5ccc(F)c6sc(N)nc56)nc4n(-c4c(C)ccnc4C(C)C)c3=O)N2C[C@H]1C [Compound 7, (2R,4aR)-3-acryloyl-10-(2-amino-7-fluorobenzo[d]thiazol-4-yl)-11-fluoro-8-(2-isopropyl-4-methylpyridin-3-yl)-2,6-dimethyl-2,3,4,4a,6,8-hexahydro-1H-pyrazino [1′,2′:4,5]pyrazino[2,3-c][1,8]naphthyridine-5,7-dione] | 7.17 | 42.5% |  |  |
| C=CC(=O)N1C[C@@H]2C(=O)N(C)c3c(c4cc(F)c(-c5nc(N)ccc5Cl)nc4n(-c4c(C)ccnc4C(C)C)c3=O)N2C[C@H]1C [Compound 10, (2R,4aR)-3-acryloyl-10-(6-amino-3-chloropyridin-2-yl)-11-fluoro-8-(2-isopropyl-4-methylpyridin-3-yl)-2,6-dimethyl-2,3,4,4a,6,8-hexahydro-1H-pyrazino [1′,2′:4,5]pyrazino[2,3-c][1,8] naphthyridine-5,7-dione] | 7.13 | 45.5% |  |  |
| C=CC(=O)N1C[C@@H]2C(=O)N(C)c3c(c4cc(Cl)c(-c5c(O)cccc5F)nc4n(-c4c(SC)ccnc4C(C)C)c3=O)N2C[C@H]1C [Compound 16, (2R,4aR)-3-acryloyl-11-chloro-10-(2-fluoro-6-hydroxyphenyl)-8-(2-isopropyl-4-(methylthio)pyridin-3-yl)-2,6-dimethyl-2,3,4,4a,6,8-hexahydro-1H-pyrazino [1′,2′:4,5]pyrazino[2,3-c][1,8] naphthyridine-5,7-dione] |  | 38.5% | 7.40 | pIC50 [3]: 7.03 |
| C=CC(=O)N1C[C@@H]2C(=O)N(C)c3c(c4cc(Cl)c(-c5c(O)cccc5F)nc4n(-c4c(SC)ccnc4C(C)C)c3=O)N2C[C@H]1C [Compound 18] |  |  | 7.01 |  |
